Assay results taken from ChEMBL document CHEMBL4431295 (Medchemcomm, 2016).
One block for each compound: values may come before it. Active and inactive are the calls of the source. The calls are words filed in the database; no cut-off is given here.

Experiments:
SK-N-SH [1] = assay: Antiproliferative activity against human SK-N-SH cells after 72 hrs by MTT assay; type: functional, cell-based
MGC-803 = assay: Antiproliferative activity against human MGC803 cells after 72 hrs by MTT assay; type: functional, cell-based; settings: MGC-803, 72 h
HepG2 = assay: Antiproliferative activity against human HepG2 cells after 72 hrs by MTT assay; type: functional, cell-based; settings: HepG2, 72 h
SK-N-SH [2] = assay: Induction of apoptosis in human SK-N-SH cells assessed as live cells at 10 uM by Annexin V-FITC/propidium iodide staining based flow cytometry (reference value: 90.9%); type: functional
SK-N-SH [3] = assay: Induction of apoptosis in human SK-N-SH cells assessed as cell rounding at 5 to 10 uM after 24 hrs by Hoechst 33258 staining based fluorescence microscopic analysis; type: functional
SK-N-SH [4] = assay: Induction of apoptosis in human SK-N-SH cells assessed as late apoptotic cells at 2.5 uM by Annexin V-FITC/propidium iodide staining based flow cytometry (reference value: 1.7%); type: functional
SK-N-SH [5] = assay: Cell cycle arrest in human SK-N-SH cells assessed as G1/G0 phase accumulation at 2.5 uM after 24 hrs by FITC/propidium iodide staining based flow cytometry (reference value: 57.72%); type: functional
SK-N-SH [6] = assay: Induction of apoptosis in human SK-N-SH cells assessed as early apoptotic cells at 2.5 uM by Annexin V-FITC/propidium iodide staining based flow cytometry (reference value: 7.1%); type: functional
SK-N-SH [7] = assay: Induction of apoptosis in human SK-N-SH cells assessed as live cells at 20 uM by Annexin V-FITC/propidium iodide staining based flow cytometry (reference value: 90.9%); type: functional
SK-N-SH [8] = assay: Induction of apoptosis in human SK-N-SH cells assessed as necrotic cells at 5 uM by Annexin V-FITC/propidium iodide staining based flow cytometry (reference value: 0.3%); type: functional
SK-N-SH [9] = assay: Cell cycle arrest in human SK-N-SH cells assessed as G2/M phase accumulation at 5 uM after 24 hrs by FITC/propidium iodide staining based flow cytometry (reference value: 6.03%); type: functional
SK-N-SH [10] = assay: Induction of apoptosis in human SK-N-SH cells assessed as necrotic cells at 2.5 uM by Annexin V-FITC/propidium iodide staining based flow cytometry (reference value: 0.3%); type: functional
SK-N-SH [11] = assay: Induction of apoptosis in human SK-N-SH cells assessed as early apoptotic cells at 1.25 uM by Annexin V-FITC/propidium iodide staining based flow cytometry (reference value: 7.1%); type: functional
SK-N-SH [12] = assay: Induction of apoptosis in human SK-N-SH cells assessed as necrotic cells at 10 uM by Annexin V-FITC/propidium iodide staining based flow cytometry (reference value: 0.3%); type: functional
SK-N-SH [13] = assay: Induction of apoptosis in human SK-N-SH cells assessed as late apoptotic cells at 10 uM by Annexin V-FITC/propidium iodide staining based flow cytometry (reference value: 1.7%); type: functional
SK-N-SH [14] = assay: Cell cycle arrest in human SK-N-SH cells assessed as G2/M phase accumulation at 10 uM after 24 hrs by FITC/propidium iodide staining based flow cytometry (reference value: 6.03%); type: functional
SK-N-SH [15] = assay: Induction of apoptosis in human SK-N-SH cells assessed as late apoptotic cells at 20 uM by Annexin V-FITC/propidium iodide staining based flow cytometry (reference value: 1.7%); type: functional
SK-N-SH [16] = assay: Induction of apoptosis in human SK-N-SH cells assessed as early apoptotic cells at 5 uM by Annexin V-FITC/propidium iodide staining based flow cytometry (reference value: 7.1%); type: functional
SK-N-SH [17] = assay: Induction of apoptosis in human SK-N-SH cells assessed as necrotic cells at 1.25 uM by Annexin V-FITC/propidium iodide staining based flow cytometry (reference value: 0.3%); type: functional
SK-N-SH [18] = assay: Cell cycle arrest in human SK-N-SH cells assessed as G1/G0 phase accumulation at 10 uM after 24 hrs by FITC/propidium iodide staining based flow cytometry (reference value: 57.72%); type: functional
SK-N-SH [19] = assay: Induction of apoptosis in human SK-N-SH cells assessed as live cells at 5 uM by Annexin V-FITC/propidium iodide staining based flow cytometry (reference value: 90.9%); type: functional
SK-N-SH [20] = assay: Induction of apoptosis in human SK-N-SH cells assessed as late apoptotic cells at 1.25 uM by Annexin V-FITC/propidium iodide staining based flow cytometry (reference value: 1.7%); type: functional
SK-N-SH [21] = assay: Induction of apoptosis in human SK-N-SH cells assessed as necrotic cells at 20 uM by Annexin V-FITC/propidium iodide staining based flow cytometry (reference value: 0.3%); type: functional
SK-N-SH [22] = assay: Cell cycle arrest in human SK-N-SH cells assessed as S phase accumulation at 5 uM after 24 hrs by FITC/propidium iodide staining based flow cytometry (reference value: 37.4%); type: functional
SK-N-SH [23] = assay: Induction of apoptosis in human SK-N-SH cells assessed as decrease in pro-caspase-3 expression at 5 to 10 uM after 24 hrs by Western blot analysis; type: functional, cell-based
SK-N-SH [24] = assay: Induction of apoptosis in human SK-N-SH cells assessed as live cells at 1.25 uM by Annexin V-FITC/propidium iodide staining based flow cytometry (reference value: 90.9%); type: functional
SK-N-SH [25] = assay: Cell cycle arrest in human SK-N-SH cells assessed as G1/G0 phase accumulation after 24 hrs by FITC/propidium iodide staining based flow cytometry; type: functional
SK-N-SH [26] = assay: Cell cycle arrest in human SK-N-SH cells assessed as G1/G0 phase accumulation at 5 uM after 24 hrs by FITC/propidium iodide staining based flow cytometry (reference value: 57.72%); type: functional
SK-N-SH [27] = assay: Induction of apoptosis in human SK-N-SH cells assessed as formation of apoptotic bodies at 5 to 10 uM after 24 hrs by Hoechst 33258 staining based fluorescence microscopic analysis; type: functional, cell-based
SK-N-SH [28] = assay: Cell cycle arrest in human SK-N-SH cells assessed as S phase accumulation at 10 uM after 24 hrs by FITC/propidium iodide staining based flow cytometry (reference value: 37.4%); type: functional
SK-N-SH [29] = assay: Induction of apoptosis in human SK-N-SH cells assessed as chromatin shrinkage at 5 to 10 uM after 24 hrs by Hoechst 33258 staining based fluorescence microscopic analysis; type: functional, cell-based
SK-N-SH [30] = assay: Induction of apoptosis in human SK-N-SH cells assessed as live cells at 2.5 uM by Annexin V-FITC/propidium iodide staining based flow cytometry (reference value: 90.9%); type: functional
SK-N-SH [31] = assay: Induction of apoptosis in human SK-N-SH cells assessed as increase in p53 expression at 5 to 10 uM after 24 hrs by Western blot analysis; type: functional, cell-based
SK-N-SH [32] = assay: Induction of apoptosis in human SK-N-SH cells assessed as late apoptotic cells at 5 uM by Annexin V-FITC/propidium iodide staining based flow cytometry (reference value: 1.7%); type: functional
GES1 = assay: Cytotoxicity against human GES-1 cells assessed as cell growth inhibition after 72 hrs by MTT assay; type: cell-based; settings: GES1, 72 h
SK-N-SH [33] = assay: Cell cycle arrest in human SK-N-SH cells assessed as G2/M phase accumulation at 2.5 uM after 24 hrs by FITC/propidium iodide staining based flow cytometry (reference value: 6.03%); type: functional
SK-N-SH [34] = assay: Cell cycle arrest in human SK-N-SH cells assessed as S phase accumulation at 2.5 uM after 24 hrs by FITC/propidium iodide staining based flow cytometry (reference value: 37.4%); type: functional
SK-N-SH [35] = assay: Induction of apoptosis in human SK-N-SH cells assessed as early apoptotic cells at 10 uM by Annexin V-FITC/propidium iodide staining based flow cytometry (reference value: 7.1%); type: functional
SK-N-SH [36] = assay: Induction of apoptosis in human SK-N-SH cells assessed as increase in caspase-3 expression at 5 to 10 uM after 24 hrs by Western blot analysis; type: functional, cell-based
SK-N-SH [37] = assay: Induction of apoptosis in human SK-N-SH cells assessed as early apoptotic cells at 20 uM by Annexin V-FITC/propidium iodide staining based flow cytometry (reference value: 7.1%); type: functional

Structure (SMILES): Nc1ccc(C(=O)/C=C/c2ccco2)cc1
- IC50 (SK-N-SH [1]): 48.9 µM
- IC50 (MGC-803): > 64 µM
- IC50 (HepG2): > 64 µM

Structure (SMILES): O=C(/C=C/c1cccs1)c1ccc(NCc2cn(Cc3ccc(Cl)cc3)nn2)cc1
- IC50 (SK-N-SH [1]): 30.9 µM
- IC50 (MGC-803): 29.6 µM
- IC50 (HepG2): 39.2 µM

Structure (SMILES): COc1ccccc1/C=C/C(=O)c1ccc(OCc2cn(Cc3ccccc3)nn2)cc1
- IC50 (SK-N-SH [1]): 26.7 µM
- IC50 (MGC-803): > 64 µM
- IC50 (HepG2): 24.8 µM

Structure (SMILES): O=C(/C=C/c1ccco1)c1ccc(NCc2cn(Cc3ccccc3)nn2)cc1
- IC50 (SK-N-SH [1]): 39.2 µM
- IC50 (MGC-803): 37.3 µM
- IC50 (HepG2): 42.5 µM

Structure (SMILES): O=C(/C=C/c1cc(F)cc(F)c1)c1ccc(NCc2cn(Cc3ccccc3)nn2)cc1
- IC50 (SK-N-SH [1]): 27.3 µM
- IC50 (MGC-803): 23.5 µM
- IC50 (HepG2): > 64 µM

Structure (SMILES): Nc1ccc(C(=O)/C=C/c2ccc(Cl)cc2)cc1
- IC50 (SK-N-SH [1]): 58.2 µM
- IC50 (MGC-803): 61.2 µM
- IC50 (HepG2): 55.6 µM

Stronger by IC50 (SK-N-SH [1]), values ahead:

- IC50 (SK-N-SH [1]): 11.6 µM
- IC50 (MGC-803): 29.8 µM
- IC50 (HepG2): 24.4 µM
Structure (SMILES): O=C(/C=C/c1ccc([N+](=O)[O-])cc1)c1ccc(OCc2cn(Cc3ccccc3)nn2)cc1

- IC50 (SK-N-SH [1]): 6.44 µM
- IC50 (MGC-803): 11.6 µM
- IC50 (HepG2): 5.47 µM
Structure (SMILES): CN1CCN(c2ccc(/C=C/C(=O)c3ccc(OCc4cn(Cc5ccccc5)nn4)cc3)cc2F)CC1

- IC50 (SK-N-SH [1]): 6.26 µM
- IC50 (MGC-803): 6.26 µM
- IC50 (HepG2): 10.4 µM
Structure (SMILES): COc1cc(OC)c(/C=C/C(=O)c2ccc(NCc3cn(Cc4ccccc4)nn3)cc2)c(OC)c1

- IC50 (SK-N-SH [1]): 21.2 µM
- IC50 (MGC-803): 38.6 µM
- IC50 (HepG2): 34.7 µM
Structure (SMILES): COc1cccc(Cn2cc(CNc3ccc(C(=O)/C=C/c4ccc(Cl)cc4)cc3)nn2)c1

- IC50 (SK-N-SH [1]): 19.6 µM
- IC50 (MGC-803): > 64 µM
- IC50 (HepG2): 24 µM
Structure (SMILES): O=C(/C=C/c1cccc(Cl)c1)c1ccc(OCc2cn(Cc3ccccc3)nn2)cc1

- IC50 (SK-N-SH [1]): 1.53 µM
- IC50 (MGC-803): 2.73 µM
- IC50 (HepG2): 2.21 µM
Structure (SMILES): COc1cccc(Cn2cc(CNc3ccc(C(=O)/C=C/c4cccnc4)cc3)nn2)c1
- Activity (SK-N-SH [2]): 48.8%
- Activity (SK-N-SH [3]): Active
- Activity (SK-N-SH [4]): 2.1%
- Activity (SK-N-SH [5]): 67.06%
- Activity (SK-N-SH [6]): 5.8%
- Activity (SK-N-SH [7]): 1%
- Activity (SK-N-SH [8]): 0.8%
- Activity (SK-N-SH [9]): 14.2%
- Activity (SK-N-SH [10]): 0.7%
- Activity (SK-N-SH [11]): 5.7%
- Activity (SK-N-SH [12]): 0.5%
- Activity (SK-N-SH [13]): 18.8%
- Activity (SK-N-SH [14]): 7.17%
- Activity (SK-N-SH [15]): 57.7%
- Activity (SK-N-SH [16]): 9.6%
- Activity (SK-N-SH [17]): 0.3%
- Activity (SK-N-SH [18]): 81.8%
- Activity (SK-N-SH [19]): 87.1%
- Activity (SK-N-SH [20]): 1.2%
- Activity (SK-N-SH [21]): 1.6%
- Activity (SK-N-SH [22]): 15.65%
- Activity (SK-N-SH [23]): Active
- Activity (SK-N-SH [24]): 92.9%
- Activity (SK-N-SH [25]): Dose-dependent effect
- Activity (SK-N-SH [26]): 71.27%
- Activity (SK-N-SH [27]): Active
- Activity (SK-N-SH [28]): 10.34%
- Activity (SK-N-SH [29]): Active
- Activity (SK-N-SH [30]): 91.4%
- Activity (SK-N-SH [31]): Active
- Activity (SK-N-SH [32]): 2.5%
- IC50 (GES1): 31.1 µM
- Activity (SK-N-SH [33]): 18.71%
- Activity (SK-N-SH [34]): 19.11%
- Activity (SK-N-SH [35]): 31.9%
- Activity (SK-N-SH [36]): Active
- Activity (SK-N-SH [37]): 39.7%

- IC50 (SK-N-SH [1]): 4.36 µM
- IC50 (MGC-803): 7.03 µM
- IC50 (HepG2): 9.32 µM
Structure (SMILES): O=C(/C=C/c1cccnc1)c1ccc(NCc2cn(Cc3ccc(Cl)cc3)nn2)cc1

- IC50 (SK-N-SH [1]): 20.5 µM
- IC50 (MGC-803): 16.8 µM
- IC50 (HepG2): 23.4 µM
Structure (SMILES): O=C(/C=C/c1cc(Cl)cc(Cl)c1)c1ccc(NCc2cn(Cc3ccccc3)nn2)cc1
